Source: PubChem BioAssay AID624350 (Johns Hopkins Ion Channel Center, 2012)
Values joined by “and” are separate entries in the source; they are usually repeats but may differ in a detail not shown here. Equal values may be shown once. Active and inactive are the calls of the source.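 Rule for the calls: active = over 50% block of the Kir2.1 potassium channel by compound at 30 µM; inactive = the rest.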

Each molecule was assayed against Inward rectifier potassium channel 2 (Mus musculus) (UniProt P35561) (assay: Kir2.1 potassium channel inhibitors, dose response, cell-based, HEK293, thallium flux, FluxOR fluorescence (AID 624350)). Conditions: HEK293 Kir2.1, FluxOR thallium flux fluorescence, 20 min.
Sequence of Inward rectifier potassium channel 2 (Mus musculus) (P35561 whole entry, looked up): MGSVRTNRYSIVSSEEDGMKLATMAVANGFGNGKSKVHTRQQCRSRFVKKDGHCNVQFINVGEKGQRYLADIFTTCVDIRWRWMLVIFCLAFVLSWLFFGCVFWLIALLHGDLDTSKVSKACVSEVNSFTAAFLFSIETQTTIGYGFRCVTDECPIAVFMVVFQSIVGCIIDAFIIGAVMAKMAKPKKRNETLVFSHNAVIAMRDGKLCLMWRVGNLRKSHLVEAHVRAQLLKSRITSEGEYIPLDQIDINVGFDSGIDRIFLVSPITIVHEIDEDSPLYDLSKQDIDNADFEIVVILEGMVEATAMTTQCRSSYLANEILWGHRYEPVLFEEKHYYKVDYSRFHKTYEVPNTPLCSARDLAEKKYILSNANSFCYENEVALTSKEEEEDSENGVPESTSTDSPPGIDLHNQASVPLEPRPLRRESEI

| Structure (SMILES) | outcome | IC50 |
| --- | --- | --- |
| c1ccc(Cc2nc3ccccc3n2C2CC2)cc1 | inactive |  |
| Cc1ccc(C)c(OCCCOCc2ccccc2)c1 | inactive |  |
| COCc1nc2ccccc2n1CCN1CCOCC1 | inactive |  |
| Cc1ccc(C)c(OCCCN2CCOCC2)c1 | inactive |  |
| Cc1ccc(C)c(OCCCN2CCCCC2)c1 | inactive |  |
| Cc1ccc(C)c(OCCCN(C)CCO)c1 | inactive |  |
| O=S(=O)(c1ccccc1Br)N1CCCc2ccccc21 |  | 10 µM |
| Cc1ccc(C)c(OCCCNCc2ccco2)c1 |  | inactive |
| c1ccc(Cc2nc3ccccc3n2-c2ccccc2)cc1 |  | 15 µM |
| Cc1ccc(C)c(OCCCNC[C@@H](C)O)c1 |  | inactive |
| Cc1ccc(C)c(OCCCNCCc2ccccc2)c1 |  | 10.6 µM |
| CCN(CC)CCCOc1cc(C)ccc1C | inactive |  |
| C[C@H](NC(=O)c1ccc(Br)cc1)c1ccccc1 | inactive |  |
| c1ccc(Cc2nc3ccccc3n2Cc2ccccc2)cc1 |  | 29.9 µM |
| COCc1nc2ccccc2n1C1CC1 | inactive |  |
| O=C(c1ccc(F)cc1)N1CCCc2ccccc21 | inactive |  |
| CC(C)Cn1c(Cc2ccccc2)nc2ccccc21 |  | 28.4 µM |

| Structure (SMILES) | outcome | IC50 |
| --- | --- | --- |
| COCc1nc2ccccc2n1Cc1ccccc1 | inactive |  |
| Cc1ccc(C)c(OCCCNCCO)c1 | inactive |  |
| COCc1nc2ccccc2n1-c1ccccc1 | inactive |  |
| Cc1ccc(C)c(OCCCNCc2cccc3ccccc23)c1 |  | 11.2 µM |
| COCc1nc2ccccc2n1CC(C)C | inactive |  |
| Cc1ccc(C)c(OCCCNCc2ccccc2)c1 |  | 8.91 µM |
| CN1CCN(S(=O)(=O)c2ccc(Br)cc2)CC1 | inactive |  |
| Cc1ccc(C)c(OCCCN(C)Cc2ccccc2)c1 |  | 11.9 µM |
| Cc1ccc(C)c(OCCCNc2ccccc2)c1 | inactive |  |
| Cc1ccc(C)c(OCCCNCC2CCCCC2)c1 |  | 18.9 µM |
| C[C@@H](NC(=O)c1ccc(Br)cc1)c1ccccc1 | inactive |  |
| O=S(=O)(c1ccccc1F)N1CCCc2ccccc21 |  | 11.2 µM |
| O=S(=O)(c1cccc(Br)c1)N1CCCc2ccccc21 |  | 12.6 µM |
| Cc1ccc(C)c(OCCCNC[C@H](C)O)c1 | inactive |  |
| Cc1ccc(C)c(OCCCNCc2ccc(Cl)c(Cl)c2)c1 |  | 13.4 µM |
| O=S(=O)(c1ccc(Br)cc1)N1CCCCC1 | inactive |  |
| COc1ccc(N2CCN(S(=O)(=O)c3ccc(Br)cc3)CC2)cc1 | inactive |  |

Other lines, results leading:

| outcome | IC50 | Structure (SMILES) |
| --- | --- | --- |
|  | 15.6 µM | O=S(=O)(NCc1cc(F)cc(F)c1)c1ccc(Br)cc1 |
| inactive |  | O=S(=O)(NCCc1ccccc1)c1ccc(Br)cc1 |
|  | 17.9 µM | O=S(=O)(c1ccc(Br)cc1)N1CCc2ccccc21 |
|  | 16.3 µM | O=S(=O)(NCc1ccc(F)cc1F)c1ccc(Br)cc1 |
|  | 13.4 µM | O=S(=O)(NCCc1c[nH]c2ccccc12)c1ccc(Br)cc1 |
|  | 28.4 µM | O=S(=O)(NC1Cc2ccccc2C1)c1ccc(Br)cc1 |
|  | 15.8 µM and 13.4 µM | O=S(=O)(c1ccc(Br)cc1)N1CCCc2ccccc21 |
|  | 9.46 µM | C[C@@H](NS(=O)(=O)c1ccc(Br)cc1)c1cccc2ccccc12 |
| inactive |  | O=S(=O)(NCC(c1ccccc1)c1ccccc1)c1ccc(Br)cc1 |
| inactive |  | C[C@@H](c1ccccc1)N(Cc1ccccc1)S(=O)(=O)c1ccc(Br)cc1 |
| inactive |  | O=S(=O)(NCc1ccco1)c1ccc(Br)cc1 |
| inactive |  | O=S(=O)(c1ccc(Br)cc1)N1CCN(c2ccc(Cl)c(Cl)c2)CC1 |
|  | 7.81 µM | COc1ccccc1CCNS(=O)(=O)c1ccc(Br)cc1 |
| inactive |  | O=S(=O)(NCc1cccc(F)c1)c1ccc(Br)cc1 |
| inactive |  | O=S(=O)(NCc1cccnc1)c1ccc(Br)cc1 |
| inactive |  | COc1ccc(CCNS(=O)(=O)c2ccc(Br)cc2)cc1OC |
| inactive |  | O=S(=O)(N[C@H]1c2ccccc2C[C@H]1O)c1ccc(Br)cc1 |
| inactive |  | O=S(=O)(NCc1ccncc1)c1ccc(Br)cc1 |
| inactive |  | O=S(=O)(c1ccc(Br)cc1)N1CCC(c2ccccc2)CC1 |
| inactive |  | CN(Cc1ccccc1)S(=O)(=O)c1ccc(Br)cc1 |
|  | 12.6 µM | O=S(=O)(c1cccc(F)c1)N1CCCc2ccccc21 |
| inactive |  | O=S(=O)(NCc1cccc2ccccc12)c1ccc(Br)cc1 |
| inactive |  | O=S(=O)(NCc1ccccc1)c1ccc(Br)cc1 |
|  | 11.9 µM | O=S(=O)(c1ccc(F)cc1)N1CCCc2ccccc21 |
|  | 23 µM | CCN(Cc1ccncc1)S(=O)(=O)c1ccc(Br)cc1 |
|  | 17.8 µM | O=[N+]([O-])c1ccc(CNS(=O)(=O)c2ccc(Br)cc2)cc1 |
| inactive |  | O=S(=O)(NCc1ccccn1)c1ccc(Br)cc1 |
|  | 11.3 µM | O=S(=O)(NCc1ccc(F)c(F)c1)c1ccc(Br)cc1 |
